In brackets after ≈: the same amount, converted by molar mass.
Key:
IL-2 pSTAT5 (JAK1/JAK3) = IL-2 pSTAT5 (JAK1/JAK3) cellular assay, AlphaLISA in PBMCs; format: cell-based; details: PBMC, IL-2 5 ng/mL
Description: The AlphaLISA assay (based on Alpha Technology from PerkinElmer) was performed by first plating freshly thawed PBMCs (Biological Specialty Corporation) in 384-well plates at 30,000 cells per 4 μL per well in HBSS (Hanks' Balanced Salt Solution) containing 0.1% IgG (immunoglobulin G)-free, protease-free BSA (bovine serum albumin) (Jackson ImmunoResearch Cat. No. 001-000-161). The cells were then treated with 2 μL/well of compounds diluted in DMSO at half-log titrated concentrations, with a highest test concentration of 10 μM and 0.5% final DMSO concentration, for thirty minutes at 37° C. […] The cellular reactions were terminated by the addition of 2 μL/well of lysis buffer (PerkinElmer Cat. No. ALSU-PST5-A10K) followed by an incubation of five minutes at room temperature. 5 μL/well of acceptor mix (PerkinElmer Cat. No. ALSU-PST5-A10K) was added to the cells and incubated in the dark for one hour at room temperature. Then, 5 μL/well of donor mix (PerkinElmer Cat. No. ALSU-PST5-A10K) was added to the cells and incubated in the dark overnight at room temperature. Finally, the plates were read on a PerkinElmer EnVision for detection of the time-resolved fluorescence signal. The percentage of IL-2-dependent pSTAT5 inhibition was determined at the compound test concentrations; and for each compound, a dose curve was generated and the IC50 was calculated. Compound IC50 was calculated by nonlinear regression, sigmoidal dose response analysis of the half-log dilution titration curve of the compound concentration vs. Alpha signal. The acronym “Alpha” stands for amplified luminescent proximity homogeneous assay; the Alpha signal is a luminescent/fluorescent signal.

IFNα pSTAT4 (JAK1/TYK2) = IFNα pSTAT4 (JAK1/TYK2) cellular assay, AlphaLISA in PBMCs; format: cell-based; details: PBMC, IFNα 4 ng/mL
Description: The AlphaLISA assay (based on Alpha Technology from PerkinElmer) was performed by first plating freshly thawed PBMCs (Biological Specialty Corporation) in 384-well plates at 100,000 cells per 6 μL per well in DMEM (Dulbecco's Modified Eagle Medium) containing 10% FBS (fetal bovine serum) and 1,000 I.U./mL penicillin and 1,000 μg/mL streptomycin. The cells were then treated with 2 μL/well of compounds diluted in DMSO at half-log titrated concentrations, with a highest test concentration of 10 μM and 0.5% final DMSO concentration, for thirty minutes at 37° C. Next, the cells were stimulated with 2 μL/well of IFNα (PBL Assay Science Cat. No. 11101-2) at 4 ng/mL for thirty minutes at 37° C. The cellular reactions were terminated by the addition of 2 μL/well of lysis buffer (PerkinElmer Cat. No. ALSU-PST4-A10K) followed by an incubation of five minutes at room temperature. 4 μL/well of acceptor mix (PerkinElmer Cat. No. ALSU-PST4-A10K) was added to the cells and incubated in the dark for one hour at room temperature. Then, 4 μL/well of donor mix (PerkinElmer Cat. No. ALSU-PST4-A10K) was added to the cells and incubated in the dark overnight at room temperature. Finally, the plates were read on a PerkinElmer EnVision for detection of the time-resolved fluorescence signal. The percentage of IFNα-dependent pSTAT4 inhibition was determined at the compound test concentrations; and for each compound, a dose curve was generated and the IC50 was calculated. Compound IC50 was calculated by nonlinear regression, sigmoidal dose response analysis of the half-log dilution titration curve of the compound concentration vs. Alpha signal. The term “Alpha” is defined in the immediately preceding cellular assay description.

MDCK-MDR1 cell line = test: MDCK-MDR1 permeability assay; format: in vitro ADME; details: for MDCK-MDR1 Papp(A-B): without elacridar; for MDCK-MDR1 Papp(B-A): basolateral to apical; for Papp(B-A)/Papp(A-B) efflux ratio: MDCK-MDR1, @ 5 μM
Description: (§1) Permeability measurements were conducted according to the Cyprotex protocol using the MDCK-MDR1 cell line obtained from the NIH (Rockville, Md., USA). […] The cells in this assay form a cohesive sheet of a single cell layer filing the surface area of the culture dish, also known as a confluent monolayer, and on day four the test compound was added to the apical side of the membrane and the transport of the compound across the monolayer was monitored over a time period of 60 min.
(§2) Test compounds were dissolved in DMSO at a concentration of 10 mM. The dosing solutions were prepared by diluting test compound with assay buffer (Hanks Balanced Salt Solution), pH 7.4, at a final concentration of 5 μM. For assessment of apical to basolateral (“A-B”) permeability, buffer was removed from the apical compartment and replaced with test compound dosing solution with or without the permeability glycoprotein (“PgP”, “P-gP”, “Pgp” or “P-gp”) inhibitor elacridar (2 μM). For assessment of basolateral to apical (“B-A”) permeability, buffer was removed from the companion plate and replaced with test compound dosing solution. Incubations were carried out in duplicate at 37° C. in an atmosphere of 5% CO2 with a relative humidity of 95%. […] After incubation for 60 minutes, apical and basolateral samples were diluted and test compounds quantified by LC/MS/MS using an 8-point calibration in the range 0.0039 to 3 μM with appropriate dilution of the samples (receiver dilution factor=1; donor and C0 dilution factor=10). The permeability coefficient (Papp) for each compound was calculated from the following equation: Papp=(dQ/dt)/(C0×S), where dQ/dt is the rate of permeation of the drug across the cells, C0 is the donor compartment concentration at time zero, and S is the area of the cell monolayer.
(§3) The percent recovery was measured for all incubation conditions.
(§4) Papp(A-B) gives an indication of permeation extent across the cells in this assay, which is envisaged to model the transcellular transport across Pgp-expressing cells, such as Pgp-expressing gastrointestinal tract cells.
(§5) The integrity of each monolayer was monitored by examining the permeation of lucifer yellow by fluorimetric analysis.

P-gp (MDR1) = test: MDCK-MDR1 permeability assay; format: in vitro ADME; details: dog, MDCK-MDR1, pH 7.4, with elacridar 2 μM, @ 5 μM, apical to basolateral, with P-gp inhibitor elacridar (2 μM); read-out: MDCK-MDR1 P^eapp(A-B)
Description: as §1, §2, §3, §4, §5

physchem = details: pH 6.5, fassif, thermodynamic from solid
[1] = In vivo intracolonic (i.c.) dosing, plasma and colon concentrations (Protocol 3); parameters: species or system female C57BL/6 mice; key to Plasma Concentration After i.c. Dosing, Mean: ^: Mean was not calculated as the values for all three mice were below the lower limit of quantitation; details: mice; for Plasma Concentration After i.c. Dosing, Mean: 5 mg/kg i.c.
Excerpt: Plasma and colon concentration results were obtained by following Protocol 1 using venipuncture of dorsal metatarsal vein bleed for Compounds (B), (C), and Examples 6 and 11. Plasma and colon concentration results were obtained by following Protocol 2 using retro-orbital bleed for Compounds (A), and Examples 1, and 3-5 and Protocol 2 using venipuncture of the dorsal metatarsal vein for Examples 2, 7-10, and 12. Plasma and colon concentration results were obtained by following Protocol 3 for Examples 1, 3 and 4. These protocols are described below under the heading In vivo Studies.
Intracolonic (IC) dose group: Following anesthesia with isoflurane by inhalation, three non-fasted female C57BL/6 mice were administered the compound intracolonically through a small incision in the abdominal wall using a syringe and needle at a dose of 5 mg/kg as a solution in 20% HPβCD at a dose volume of 1 mL/kg. Blood samples were collected at 0.5, 2, and 4 h post dose via retro-orbital bleed. Blood samples were collected into tubes containing anticoagulant (Heparin-Na) and placed on wet ice. The plasma fraction was separated by centrifugation and frozen at −20° C. for up to 4 h and −80° C. after 4 h unless analyzed shortly after sample collection. Colon samples were collected at 4 h post dose. From 2 cm below the cecum, a 4-cm sample of the colon was dissected, cut open on the longitudinal axis, and the solid contents removed by flushing with 2 mL of saline. The colon was further washed by putting it in 5 mL of saline and shaken for 5 seconds. The colon sample was then patted dry, weighed, and homogenized as 1 part tissue (g) to 4 parts HPLC grade water (mL). Concentrations of the compound in plasma and colon homogenate were determined using a qualified liquid chromatography-triple quadrupole mass spectrometry (LC-MS/MS) method. This protocol was used to evaluate IC dosing of the following test compounds: Examples 1, 3, and 4.

Row | SMILES | IC50 (IL-2 pSTAT5 (JAK1/JAK3)) [nM] | IC50 (IFNα pSTAT4 (JAK1/TYK2)) [nM] | MDCK-MDR1 P^eapp(A-B) (MDCK-MDR1 cell line; @ 5 μM, apical to basolateral, with P-gp inhibitor elacridar (2 μM)) | MDCK-MDR1 Papp(A-B) (MDCK-MDR1 cell line; @ 5 μM, apical to basolateral) | MDCK-MDR1 Papp(B-A) (MDCK-MDR1 cell line; @ 5 μM) | Papp(B-A)/Papp(A-B) efflux ratio (MDCK-MDR1 cell line) | Papp A→B at 60 min, 5 μM (P-gp (MDR1)) [×10⁻⁶ cm/s] | solubility (physchem) [µM] | Plasma Concentration After i.c. Dosing, Mean ([1]; Time = 2 h) | Plasma Concentration After i.c. Dosing, Mean ([1]; Time = 4 h) | systemic exposure after i.c. dosing [1]
1 | N#CC[C@H]1CC[C@H](n2c(CC(=O)NC3CCOCC3)nc3cnc4[nH]ccc4c32)CC1 [Ex. 5, 2-(1-((1r,4r)-4-(Cyanomethyl)cyclohexyl)-1,6-dihydroimidazo[4,5-d]pyrrolo[2,3-b]pyridin-2-yl)-N-(tetrahydro-2H-pyran-4-yl)acetamide] | 6.4 | 38.1 | 0.5 10^−6 cm/sec | < 0.5 10^−6 cm/sec | 2.1 10^−6 cm/sec | > 4.5 | 0.7 | 198 (≈ 83.3 µg/mL) | – | – | –
2 | N#CCC12CCC(NC(=O)Cc3nc4cnc5[nH]ccc5c4n3[C@H]3CC[C@H](CC#N)CC3)(CC1)C2 [Ex. 10, N-(4-(Cyanomethyl)bicyclo[2.2.1]heptan-1-yl)-2-(1-((1r, 4r)-4-(cyanomethyl)cyclohexyl)-1,6-dihydroimidazo[4,5-d]pyrrolo[2,3-b]pyridin-2-yl)acetamide] | 16.8 | 40.4 | – | – | – | – | 1.1 | 359 (≈ 169 µg/mL) | – | – | –
3 | N#CC[C@H]1CC[C@H](n2c(CC(=O)NCC3CC3)nc3cnc4[nH]ccc4c32)CC1 [Ex. 3, 2-(1-((1r,4r)-4-(Cyanomethyl)cyclohexyl)-1,6-dihydroimidazo[4,5-d]pyrrolo[2,3-b]pyridin-2-yl)-N-(cyclopropylmethyl)acetamide] | 6.4 | 10.1 | – | < 0.5 10^−6 cm/sec | 16 10^−6 cm/sec | > 33 | 2.3 | – | ^ | ^ | low systemic exposures
4 | N#CC[C@H]1CC[C@H](n2c(CC(=O)NCC3(O)CC3)nc3cnc4[nH]ccc4c32)CC1 [Ex. 12, 2-(1-((1r,4r)-4-(Cyanomethyl)cyclohexyl)-1,6-dihydroimidazo[4,5-d]pyrrolo[2,3-b]pyridin-2-yl)-N-((1-hydroxycyclopropyl)methyl)acetamide] | 13.9 | 81.4 | – | – | – | – | 0.6 | – | – | – | –
5 | N#CC[C@H]1CC[C@H](n2c(CC(=O)NCC3CCOCC3)nc3cnc4[nH]ccc4c32)CC1 [Ex. 6, 2-(1-((1r,4r)-4-(Cyanomethyl)cyclohexyl)-1,6-dihydroimidazo[4,5-d]pyrrolo[2,3-b]pyridin-2-yl)-N-((tetrahydro-2H-pyran-4-yl)methyl)acetamide] | 6.7 | 39.4 | – | – | 2.6 10^−6 cm/sec | > 8.7 | 0.9 | – | – | – | –
6 | N#CC[C@H]1CC[C@H](n2c(-c3c[nH]cn3)nc3cnc4[nH]ccc4c32)CC1 [Ex. 2, 2-((1r,4r)-4-(2-(1H-Imidazol-4-yl)imidazo[4,5-d]pyrrolo[2,3-b]pyridin-1(6H)-yl)cyclohexyl)acetonitrile] | 9 | 20.8 | – | – | – | – | 1.6 | – | – | – | –
7 | N#CCCNC(=O)Cc1nc2cnc3[nH]ccc3c2n1[C@H]1CC[C@H](CC#N)CC1 [Ex. 4, N-(2-Cyanoethyl)-2-(1-((1r,4r)-4-(cyanomethyl)cyclohexyl)-1,6-dihydroimidazo[4,5-d]pyrrolo[2,3-b]pyridin-2-yl)acetamide] | 35.5 | 64.7 | – | – | – | – | 0.5 | – | – | ^ | low systemic exposures
8 | CC(C)(O)CNC(=O)Cc1nc2cnc3[nH]ccc3c2n1[C@H]1CC[C@H](CC#N)CC1 [Ex. 1, 2-(1-((1r,4r)-4-(Cyanomethyl)cyclohexyl)-1,6-dihydroimidazo[4,5-d]pyrrolo[2,3-b]pyridin-2-yl)-N-(2-hydroxy-2-methylpropyl)acetamide] | 21.6 | 59.5 | – | 0.4 10^−6 cm/sec | 1.1 10^−6 cm/sec | 3.3 | 1.1 | 387 (≈ 158 µg/mL) | ^ | ^ | low systemic exposures
9 | N#CC[C@H]1CC[C@H](n2c(CC(=O)NCC3(O)CCC3)nc3cnc4[nH]ccc4c32)CC1 [Ex. 8, 2-(1-((1r,4r)-4-(Cyanomethyl)cyclohexyl)-1,6-dihydroimidazo[4,5-d]pyrrolo[2,3-b]pyridin-2-yl)-N-((1-hydroxycyclobutyl)methyl)acetamide] | 20.6 | 42.8 | – | – | – | – | 0.5 | – | – | – | –
10 | CC(C)(C#N)CNC(=O)Cc1nc2cnc3[nH]ccc3c2n1[C@H]1CC[C@H](CC#N)CC1 [Ex. 7, N-(2-Cyano-2-methylpropyl)-2-(1-((1r,4r)-4-(cyanomethyl)cyclohexyl)-1,6-dihydroimidazo[4,5-d]pyrrolo[2,3-b]pyridin-2-yl)acetamide] | 9.7 | 38.5 | – | – | – | – | 1.2 | 81 (≈ 33.8 µg/mL) | – | – | –

— patent US10294226B2, “Small molecule inhibitors of the JAK family of kinases” (Janssen Pharmaceutica NV, priority 2016, dated 2019)
